In the experiment the test system is vessels from preeclamptic rats / normal pregnant rats. The experiment in a line: Perfusion of individual vessels dissected from rat models of preeclampsia and from normal pregnant rats with marinobufagenin. The text has this: It is elevated substantially more in preeclamptic rats.

For the molecule `C[C@]12CC[C@H](O)C[C@@]1(O)CC[C@@H]1[C@@H]2CC[C@]2(C)[C@@H](c3ccc(=O)oc3)C[C@H]3O[C@]132` [marinobufagenin], the “constriction of perfused vessels” value (vessels from normal pregnant animals or rats perfused with marinobufagenin) is reported as “do not constrict”. The “constriction of perfused vessels as compared with the controlled circumstance (average)” value (vessels from preeclamptic rats perfused with marinobufagenin) is reported as “about 36%”.

The values are drawn from US7439071B2, “Method of employing elevation of marinobufagenin in determining the presence of preeclampsia and related apparatus” (The Administrators of the Tulane Educational Fund, priority 2003, dated 2008).
